Results taken from US9029413B2, “Treatment of viral infections by modulation of host cell metabolic pathways” (The Trustees of Princeton University, priority 2007, dated 2015).
Entries after “also recorded” stand apart in the source; their conditions may differ. Where two headings read alike, the source gives them in different places.

Tests used:
class III PI(3)K = class III PI(3)K (Homo sapiens, UniProt Q8NEB9); details: cited from earlier work
[1] = test system: human cytomegalovirus (HCMV); assay type: cell-based
HCV replicon = details: cited from earlier work
HBV = details: cited from earlier work
[2] = cited from earlier work
host cell = experiment: Host cell toxicity of the TOFA and indomethacin combination (neutral red dye assay); details: combined use of TOFA and indomethacin
Experimental: (§2) A non-limiting example of an assay that can be performed to assess the effect of a combination of an ACC inhibitor plus Cox inhibitor on HCMV replication follows. […] In each assay, various concentrations of TOFA can be combined with various concentrations of indomethacin and assayed for their effect on virus replication. In one preferred embodiment, a physiological concentration of indomethacin is held constant as the dose of TOFA is increased. Control cultures are treated with no drug, indomethacin alone or the various concentrations of TOFA alone. […] The antiviral effect of indomethacin plus each concentration of TOFA is then compared to the activity of indomethacin alone or the various concentrations of TOFA alone.

Huh7 ET cells = experiment: Toxicity in Huh7 ET cultures (neutral red dye uptake); details: TOFA 10 μg/mL or 30 μg/mL
[3] = test system: HCMV-infected fibroblasts (MRC-5 cells); experiment: Effect on the metabolome of HCMV-infected fibroblasts (LC-MS/MS); assay type: cell-based, human; details: TOFA 20 μg/mL for 48 h
Experimental: Primary fibroblasts (MRC-5 cells) were grown in DMEM (high glucose) containing 7.5% FBS and infected at a multiplicity of 3.0 plaque forming units per cell (control cells were mock infected instead of virally infected). […] Mock-infected cells were then returned to growth medium (+DMSO vehicle) for 48 h. […] Metabolites were extracted into the methanol:water and samples analyzed by LC-MS/MS for a diversity of metabolites as described herein.

HCV RNA replicon = HCV RNA replicon luciferase (LUC) reporter assay in Huh7 ET cells
HCMV = details: TOFA 10 μg/mL
Experimental: as §2

[4] = test system: hepatitis B virus (HBV) ayw strain; experiment: Extracellular HBV DNA from HepG2-2.2.15 cells, real-time quantitative PCR
Experimental: In one aspect, Compounds can be added to HepG2-2.2.15 culture to test whether Compound will reduce the production of secreted HBV from cells utilizing real time quantitative PCR (TaqMan) assay to measure HBV DNA copies. Specifically, confluent cultures of HepG2-2.2.15 cells cultured on 96-well flat-bottomed tissue culture plates and are treated with various concentration of daily doses of Compounds. HBV virion DNA in the culture medium can be assessed 24 hours after the last treatment by quantitative blot hybridization or real time quantitative PCR (TaqMan) assay. […] Lamivudine (3TC) can be used as a positive assay control.
As noted in section 5.4, HepG2-2.2.15 (Sells et al., PNAS 84, 1005-9, 1987) is a stable cell line containing the HBV ayw strain genome. Compounds blocking any step of viral replication and release can be assayed in these cells (Korba & Milman, Antiviral Res. 15:217-28, 1991). […] The medium with the ACC inhibitor is replaced every 24 hours, and media samples are removed after drug treatment for 24, 48, 72 or 96 hours and assayed for the presence of extracellular viral DNA by real-time quantitative PCR. A reduction in the amount extracellular viral DNA or a delay in its accumulation during the treatment period with the ACC inhibitor is indicative of anti-HBV activity. […] Lamivudine (3TC) is used as a positive assay control for inhibition of the production of extracellular HBV DNA (Korba & Gerin, Antivir. Res. 19:55-70, 1992).

West Nile virus (WNV) = experiment: Extracellular viral RNA from WNV-infected Vero cells, real-time quantitative RT-PCR; assay type: cell-based; details: TOFA 20 μg/mL
Experimental: (§1) WNV and DV, members of the Flavivirus family of positive-strand RNA viruses, cause severe disease in humans. […] A reduction in the amount extracellular viral RNA or a delay in the accumulation of extracellular viral RNA during the drug treatment period will be indicative of anti-WNV or anti-DV activity. […] TOFA at 20 μg/mL results in ˜10-fold reduction, sometime greater, in accumulation of extracellular viral RNA. The accumulation of extracellular viral RNA is also delay compared to untreated cells.

Dengue virus (DV) = experiment: Extracellular viral RNA from DV-infected Vero cells, real-time quantitative RT-PCR; assay type: cell-based; details: TOFA 20 μg/mL
Experimental: as §1

coxsackie B3 virus = details: cited from earlier work
[5] = test system: HCMV, influenza A, HIV-1, HBV or HCV; experiment: Viral replication with a combination of ACC inhibitor and HMG-CoA reductase inhibitor; assay type: cell-based; details: in the presence of a therapeutically effective concentration of the active form of lovastatin
[6] = dose 30 μg/mL, MOI 3.0, 72 hours post infection, two independent experiments, each with its own controls
[7] = dose 60 μg/mL, MOI 3.0, 72 hours post infection

class III PI(3)K, sequence (Q8NEB9 whole entry): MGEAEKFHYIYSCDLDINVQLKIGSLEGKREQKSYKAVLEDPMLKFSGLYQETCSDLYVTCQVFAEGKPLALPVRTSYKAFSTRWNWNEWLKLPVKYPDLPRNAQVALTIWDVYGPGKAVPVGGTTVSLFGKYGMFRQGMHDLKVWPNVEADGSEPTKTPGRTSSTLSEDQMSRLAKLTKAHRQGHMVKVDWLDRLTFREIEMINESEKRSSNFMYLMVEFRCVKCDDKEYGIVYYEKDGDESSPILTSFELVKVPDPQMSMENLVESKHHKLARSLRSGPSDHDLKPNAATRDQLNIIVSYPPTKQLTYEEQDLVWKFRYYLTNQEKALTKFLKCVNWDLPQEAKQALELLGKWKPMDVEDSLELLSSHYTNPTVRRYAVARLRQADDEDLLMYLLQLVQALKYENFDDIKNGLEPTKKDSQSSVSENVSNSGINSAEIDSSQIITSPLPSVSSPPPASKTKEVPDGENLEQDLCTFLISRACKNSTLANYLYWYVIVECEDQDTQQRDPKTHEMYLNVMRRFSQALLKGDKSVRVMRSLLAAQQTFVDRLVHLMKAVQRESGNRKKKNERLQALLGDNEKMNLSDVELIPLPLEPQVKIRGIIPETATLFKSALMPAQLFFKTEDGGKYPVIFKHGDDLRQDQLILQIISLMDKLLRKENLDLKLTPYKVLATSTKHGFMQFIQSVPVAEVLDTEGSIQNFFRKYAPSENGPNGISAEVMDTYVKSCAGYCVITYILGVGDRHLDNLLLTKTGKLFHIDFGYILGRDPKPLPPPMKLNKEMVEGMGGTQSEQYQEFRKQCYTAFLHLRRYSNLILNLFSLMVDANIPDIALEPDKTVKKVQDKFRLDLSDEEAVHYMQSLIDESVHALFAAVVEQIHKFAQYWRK
Experimental for host cells: The toxicity of the diverse ACC inhibitors on host cells was determined by visual inspection of cell lawns and neutral red viability assay.

Cn1cnc(N)c2ncnc1-2 [3-methyladenine]
inhibition of class III PI(3)K (class III PI(3)K): inhibits class III PI(3)K | inhibition of HCMV replication (relative infectious units in medium) ([1]; 3-methyladenine 5 mM, multiplicity of 0.01 pfu/cell): has antiviral activities; also recorded: inhibits the replication of human cytomegalovirus

O=C(c1c2ccccc2cc2ccccc12)N1CCC(N2CCC[C@@H](C(=O)N3CCOCC3)C2)CC1 [CP-640186]
toxicity on host cells by neutral red viability assay (host cells): indistinguishable from DMSO control | inhibition of HCMV replication ([1]; as stated in the text for FIGS. 18 and 19, dose not given): approximately 50 fold | Fold inhibition of viral replication [1, 6]: 89.6 fold | Viral yield [1, 6]: 16000 pfu/mL

CCOC(=O)C1(CCCCCCOc2ccc(Cl)cc2)CO1 (stereo not drawn) [Etomoxir]
reduction of HCMV viral replication ([1]; Etomoxir 5 μM, AD169, multiplicity of infection 1.0, harvested 96 hours post infection): more than 1 log

CC[C@H](C)C(=O)O[C@H]1C[C@@H](C)C=C2C=C[C@H](C)[C@H](CC[C@@H]3C[C@@H](O)CC(=O)O3)[C@H]21 [Lovastatin, lovastatin]
inhibition of replication of HCV replicons (HCV replicon; Huh-7 cells): partially inhibit | production of infectious HBV particles (HBV): does not block production of infectious HBV particles | secretion of HBV surface antigen, HBsAg (HBV): inhibits secretion of the HBV surface antigen

CCCCCCCCCCCCCCOc1ccc(C(=O)O)o1 [TOFA, 5-(tetradecyloxy)-2-furoic acid]
adverse effects ([2]; rat, in vivo, 100 mg/kg/day): no adverse effects are observed | teratogenicity ([2]; rat, in vivo, 150 mg/kg/day): not teratogenic | oral LD50 ([2]; rats, oral): greater than 5,000 mg/kg | host cell toxicity by neutral red dye assay (host cell): does not increase host cell toxicity | host cell toxicity by neutral red dye (Huh7 ET cells): absence of host cell toxicity | inhibition of HCV replication (HCV replicon; TOFA 5 microg/ml, Huh-7 cells containing an HCV replicon): about 3 fold | NADP+ levels in HCMV-infected cells [3]: falling with TOFA treatment | citrate concentration in HCMV-infected cells [3]: yet greater increases in citrate concentration | malonyl-CoA concentration in HCMV-infected cells [3]: below the limit of detection; also recorded: blocked | reduction in LUC activity (HCV RNA replicon; TOFA 10 μg/mL): ~10 fold | reduction in LUC activity (HCV RNA replicon; TOFA 30 μg/mL, in some experiments): ≥ 100 fold | magnitude of the therapeutic effect on HCMV replication (HCMV; absence of indomethacin): ~10 fold | magnitude of the therapeutic effect on HCMV replication (HCMV; presence of indomethacin): ~100 fold | reduction in extracellular HBV DNA ([4]; TOFA 3 μg/mL): small but statistically significant reduction | reduction in production of extracellular HBV DNA ([4]; TOFA 10 μg/mL (range ~3 to ~30-fold)): ~10 fold | impairment of production of extracellular HBV DNA ([4]; TOFA 30 μg/mL, greater than 100-fold in some cases): greater than 10 fold | reduction in accumulation of extracellular viral RNA (WNV) (West Nile virus (WNV)): ~10 fold | reduction in accumulation of extracellular viral RNA (DV) (Dengue virus (DV)): ~10 fold | decrease in HCMV viral replication [1]: roughly one | decrease in HCMV viral replication ([1]; TOFA 20 μg/mL, MOI 3.0, GFP reporter virus, released virus only, 72 hours post infection): roughly two | Fold inhibition of viral replication [1, 6]: 427.6 fold | Viral yield [1, 6]: 7700 pfu/mL | Fold inhibition of viral replication [1, 7]: 82499.0 fold | Viral yield [1, 7]: 40 pfu/mL | sensitivity of coxsackie B3 virus (coxsackie B3 virus): insensitive | reduction of the TOFA concentration required to reduce viral growth and/or replication by 10-fold [5]: ≥ 2 fold
